Data on 9 compounds can be found in patent publication US20220088146A1, “Melanocortin Receptor-Specific Peptide Formulations and Methods for Gastrointestinal Tract-Specific Delivery” (Palatin Technologies, Inc., priority 2018, published 2022).

pEC50, pKi: −log10 of the molar value. Ends that are not written are not given here. A value given as a limit tells only on which side of the number the result lay.

Series [1] deals with T1, hMC1r (Homo sapiens, UniProt Q01726). As to the kind of experiment: Competitive inhibition binding assay using [I125]-NDP-α-MSH, hMC1r membranes. Conditions: human recombinant MC1r, HEK-293 membranes, read-out: MC-1 Ki (average). On the procedure: (§1) A competitive inhibition binding assay was performed using membrane homogenates prepared from HEK-293 cells that express recombinant hMC1r or hMC4r (in each instance where the h prefix refers to human), or alternatively membrane homogenates from B16-F10 mouse melanoma cells containing endogenous murine MC1r. In the examples that follow, all MC1r and MC4r values are for human recombinant receptors, unless otherwise noted. Assays were performed in 96 well polypropylene round-bottom plates (VWR catalog number 12777-030). […] After incubation for 90 minutes at 37° C., the assay mixture was filtered onto GF/B Unifilter plates (Perkin-Elmer catalog number 6005177) and washed with 3 mL of ice-cold buffer per well. Filters were air dried and 35 μL of scintillation cocktail added to each well. Plates were counted in a Microbeta counter for bound radioactivity. […] Each assay was conducted in duplicate and the actual mean values are described, with results less than 0% reported as 0%. Ki values for peptides of the present invention were determined using Graph-Pad Prism® curve-fitting software.
T1 sequence (Q01726 whole entry): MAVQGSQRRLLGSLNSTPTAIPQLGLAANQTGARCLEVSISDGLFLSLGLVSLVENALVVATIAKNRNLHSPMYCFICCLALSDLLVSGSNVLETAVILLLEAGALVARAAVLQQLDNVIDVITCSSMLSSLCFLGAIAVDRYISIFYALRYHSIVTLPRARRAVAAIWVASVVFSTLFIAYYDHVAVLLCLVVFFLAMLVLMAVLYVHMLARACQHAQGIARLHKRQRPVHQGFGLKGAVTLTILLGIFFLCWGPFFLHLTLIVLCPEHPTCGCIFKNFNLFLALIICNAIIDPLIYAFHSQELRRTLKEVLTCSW
(§2) All results are expressed in nM except for Emax values, which are percentage values. Peptides with the captioned primary sequence were synthesized and purified as described in Section 7 above, with the resulting peptide having the structure depicted.

The target in series [2] is T1, hMC1r. As to the kind of experiment: Assay for agonist activity: cAMP accumulation in HBL melanoma cells. The format is cell-based. Further details: endogenous in cells; host or cells: HBL human melanoma cells. The following applies: for Emax: HBL, compared to NDP-α-MSH as 100%, read-out: MC-1 Emax (average; cAMP HBL); for pEC50: read-out: MC-1 EC50 (average; cAMP HBL). The procedure:
8.2 Assay for Agonist Activity.
Confluent HBL cells that express hMC1r or HEK-293 cells that express recombinant hMC4r were detached from culture plates by incubation in enzyme-free cell dissociation buffer. Dispersed cells were suspended in Earle's Balanced Salt Solution containing 10 mM HEPES (pH 7.5), 1 mM MgCl2, 1 mM glutamine, 0.5% albumin and 0.3 mM 3-isobutyl-1-methyl-xanthine (IBMX), a phosphodiesterase inhibitor. The cells were plated in 96-well plates at a density of 0.4×10^5 cells per well for HBL cells and 0.5×10^5 cells per well for HEK-293 cells and pre-incubated for 10 minutes. Cells were exposed for 15 minutes at 37° C. to peptides of the present invention dissolved in DMSO (final DMSO concentration of 1%) at a concentration range of 0.05-5000 nM in a total assay volume of 200 μL. […] Data analysis was performed by nonlinear regression analysis with Graph-Pad Prism® software.
as §2
Background: Cyclic AMP is a second messenger, typically raised through Gs and lowered through Gi signalling.

In series [3] the target is T2, MC4r (Homo sapiens, UniProt P32245). Put plainly: Competitive inhibition binding assay using [I125]-NDP-α-MSH, hMC4r membranes. The arrangement: expressed in transfected cells; host or cells: HEK-293. The following applies: human recombinant MC4r, HEK-293 membranes, read-out: MC-4 Ki (average). On the procedure:
as §1, §2

The nature of series [4]: Plasma assay for systemic peptide in DNBS colitis rats after oral capsules. The series is classed as in vivo, rat. The following applies: oral capsules of Lot 41.
Series [5] addresses T2, MC4r. As to the kind of experiment: cell-based.
Series [6] deals with DNBS-induced bowel inflammation. As to the kind of experiment: Cannulated rat DNBS model of bowel inflammation, intracolonic dosing. The following applies: 0.5 μg and 5.0 μg intracolonic, Wistar rats. The format is in vivo. On the procedure: The rats were implanted with a catheter in the proximal part of the ascending colon, which exited out the nape of the neck for dosing access. […] Non-cannulated control rats were administered sulfasalazine (positive controls) and vehicle (untreated controls).

The target of series [7] is T3, MC2r (Homo sapiens, UniProt Q01718).
T3 construct: Cerep
T3 sequence (Q01718 whole entry, species assumed): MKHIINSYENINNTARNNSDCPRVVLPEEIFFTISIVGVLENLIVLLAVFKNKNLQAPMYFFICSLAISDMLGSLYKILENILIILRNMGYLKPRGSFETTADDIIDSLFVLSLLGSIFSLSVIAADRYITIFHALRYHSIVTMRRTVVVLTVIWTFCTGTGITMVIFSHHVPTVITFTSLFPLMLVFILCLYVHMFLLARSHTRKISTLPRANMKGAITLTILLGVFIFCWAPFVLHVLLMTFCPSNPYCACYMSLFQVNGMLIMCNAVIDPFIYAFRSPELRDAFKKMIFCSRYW
T3 sequence (Q8TCY5 whole entry partner, species assumed): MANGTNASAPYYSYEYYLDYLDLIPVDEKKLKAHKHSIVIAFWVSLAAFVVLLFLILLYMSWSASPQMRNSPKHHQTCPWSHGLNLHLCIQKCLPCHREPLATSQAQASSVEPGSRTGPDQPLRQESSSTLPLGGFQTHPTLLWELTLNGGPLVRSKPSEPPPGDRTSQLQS
As to the kind of experiment: Functional selectivity evaluation at Cerep, MC2r. The format is cell-based. The text has this:
The results were as follows:

Series [8] in a line: Dissolution of Eudragit microparticles, USP Apparatus 2. The format is physicochemical. Conditions: Lot 40 microparticles (FIG. 8). The procedure:
About 1 g of the microparticles was accurately weighed and suspended in the acid at 37° C. for 2 hours. The pH of the medium was then sequentially adjusted to pH 5.5 for 1 hour, pH 6.8 for another hour and finally to pH 7.4 for 7 hours.

The target of series [9] is T4, MC3r (Homo sapiens, UniProt P41968).
T4 construct: Cerep
T4 sequence (P41968 whole entry, species assumed): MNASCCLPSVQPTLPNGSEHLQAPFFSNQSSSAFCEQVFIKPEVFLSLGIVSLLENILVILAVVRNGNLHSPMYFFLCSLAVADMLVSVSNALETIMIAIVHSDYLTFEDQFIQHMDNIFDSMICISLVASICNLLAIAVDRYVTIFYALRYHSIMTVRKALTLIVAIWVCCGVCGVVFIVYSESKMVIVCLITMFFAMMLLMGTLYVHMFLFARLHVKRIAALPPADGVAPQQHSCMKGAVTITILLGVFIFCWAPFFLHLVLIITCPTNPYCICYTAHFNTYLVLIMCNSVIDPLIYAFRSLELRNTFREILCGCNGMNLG
As to the kind of experiment: Functional selectivity evaluation at Cerep, MC3r. The format is cell-based.

A short description of series [10]: Human clinical microdose study of C14-labeled oral formulation. The series is classed as in vivo. The following applies: single oral microdose of C14-labeled Example 9.3 formulated as for Lot 41. The text has this:
A combination of Eudragit® L100-55, Eudragit® S-100 and Eudragit® FS30D polymethacrylates were selected and utilized at a weight ratio of 23.25:23.0:12.5, where the weight of L100-55 and S-100 was dry weight of solid material, and the weight of FS30D was of a commercially prepared aqueous formulation wherein the 12.5 grams of liquid FS30D contained 3.75 grams polymer, for a weight ratio of polymer of 23.25:23:3.75. The combination of polymethacrylates were placed in acetone and stirred for an extended period. […] The dried material was retrieved, diluted with additional dried polymetacrylate mixture not containing peptide to obtain the desired target concentration in a predetermined quantity of material, and milled to the desired diameter and sieved. The sieved material was placed within a gelatin size 2 capsule to provide an oral formulation.
The oral formulation was administered in a microdose level to 24 subjects, divided into six cohorts of 4 subjects each.
The only radioactive material identified in urine was the C14 labelled phenylalanine.

Series [11] relates to MC1r. As to the kind of experiment: Functional selectivity evaluation at Cerep, MC1r. The format is cell-based.
The test system of series [12] is TNF-α. Put plainly: Lipopolysaccharide-induced TNF-α inhibition in vitro. The format is cell-based.
The test system of series [13] is 72 in vitro assays. Put plainly: Eurofins lead profile. Conditions: 10 μM.
In series [14] the target is T5, MC5r (Homo sapiens, UniProt P33032).
T5 construct: Cerep
T5 sequence (P33032 whole entry, species assumed): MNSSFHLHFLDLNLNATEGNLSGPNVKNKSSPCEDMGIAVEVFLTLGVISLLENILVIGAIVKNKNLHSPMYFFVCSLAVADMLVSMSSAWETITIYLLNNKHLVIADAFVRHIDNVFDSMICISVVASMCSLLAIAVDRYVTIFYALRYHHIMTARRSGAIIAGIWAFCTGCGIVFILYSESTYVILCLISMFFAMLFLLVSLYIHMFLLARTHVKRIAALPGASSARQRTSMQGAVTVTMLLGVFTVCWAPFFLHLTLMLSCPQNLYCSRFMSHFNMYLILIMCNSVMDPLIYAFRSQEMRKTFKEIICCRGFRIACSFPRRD
As to the kind of experiment: Functional selectivity evaluation at Cerep, MC5r. The series is classed as cell-based.

As usually defined, the pKi is −log10 of the Ki, conventionally taken in molar units. The Emax is the maximal effect, on the per cent scale that the assay sets. In general, pEC50 refers to the EC50 on a negative log10 scale, so that one unit is a factor of ten.

T2 sequence (P32245 whole entry): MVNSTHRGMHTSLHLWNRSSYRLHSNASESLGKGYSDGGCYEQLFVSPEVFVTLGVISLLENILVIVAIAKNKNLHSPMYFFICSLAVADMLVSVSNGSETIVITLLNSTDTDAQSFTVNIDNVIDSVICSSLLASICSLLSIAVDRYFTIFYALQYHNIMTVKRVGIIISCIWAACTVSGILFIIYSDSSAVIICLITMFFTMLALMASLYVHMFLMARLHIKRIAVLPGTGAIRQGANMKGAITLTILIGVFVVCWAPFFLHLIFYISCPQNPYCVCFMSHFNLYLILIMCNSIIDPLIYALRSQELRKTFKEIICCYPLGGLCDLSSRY

For `CCCC[C@H](NC(C)=O)C(=O)N[C@H]1CCC(=O)NCCC(C(=O)N[C@@H](Cc2c[nH]c3ccccc23)C(N)=O)NC(=O)[C@H](C)NC(=O)[C@@H](Cc2ccccc2)NC(=O)[C@H](Cc2c[nH]cn2)NC1=O` (stereo partly drawn) [Example 9.35, Ac-Nle-cyclo(Glu-His-D-Phe-Ala-Dab)-Trp-NH2], in series [1], the pKi is 9.10. Besides, in [2], the maximal response (Emax) was 72% and the pEC50 is 9.94.
Turning to `CCCC[C@H](NC(C)=O)C(=O)N[C@H]1CNC(=O)CCC(=O)NCC[C@@H](C(=O)N[C@@H](Cc2c[nH]c3ccccc23)C(N)=O)NC(=O)[C@H](CCCNC(=N)N)NC(=O)[C@@H](Cc2ccccc2)NC(=O)[C@H](Cc2c[nH]cn2)NC1=O` [Example 9.43, Ac-Nle-cyclo(Dap-His-D-Phe-Arg-Dab)-Trp-NH2], the pKi in [1] was 10.19; in series [3] it was 6.07. Moreover, the Emax in series [2] was 85%. Also, the pEC50 in series [2] is 10.80.
Turning to `CCCC[C@H](NC(C)=O)C(=O)N[C@H]1CCC(=O)NC[C@@H](C(=O)N[C@@H](Cc2c[nH]c3ccccc23)C(N)=O)NC(=O)[C@H](CCCNC(=N)N)NC(=O)[C@@H](Cc2ccccc2)NC(=O)[C@H](Cc2c[nH]cn2)NC1=O` [Example 9.3, Ac-Nle-cyclo(Glu-His-D-Phe-Arg-Dap)-Trp-NH2], in series [4], the “systemic peptide in plasma” value is given as “did not detect any”. Further, the negative logarithm of the EC50 (pEC50) in series [5] was 6.29; in series [7], less than 5.00; in [9], less than 5.00; in series [11], 9.24; in series [14], less than 5.00. For the same compound, the inflammation score result in series [6] (FIG. 1A) is “as active as sulfasalazine”. The colon weight entry in series [6] (FIG. 1B) was “as active as sulfasalazine”. Besides, the results for the “peptide release from microparticles” value in [8] (buffer pH 4.5-5.5) and in series [8] (buffer pH adjusted over time 4.5-7.5) were “no release” and “approximately total release”, respectively. In addition, the “intact peptide in plasma or urine” value in series [10] is “no intact peptide”. Further, the “peptide levels in fecal samples” value in series [10] was “significant and approximately equal levels”. Also, the Emax in [2] came to 91%. Besides, the “lipopolysaccharide-induced TNF-α inhibition” value in series [12] is “comparable to α-MSH and ACTH”. Besides, in [13], the “activity in 72 in vitro assays (Eurofins lead profile)” value was “no activity was detected”. In addition, in [3], the pKi is 6.29.
Take “SYSMEHFRWGKPVGKKRRPVKVYPNGAEDESAEAFPLEF [ACTH, reference compound]”: the pEC50 in [11] was 6.01.
Consider `CCCCC(NC(C)=O)C(=O)N[C@H]1CCC(=O)NCC[C@@H](C(N)=O)NC(=O)[C@H](C)NC(=O)[C@@H](Cc2ccccc2)NC(=O)[C@H](Cc2c[nH]cn2)NC1=O` (stereo partly drawn) [Example 9.45, Ac-Nle-cyclo(Glu-His-D-Phe-Ala-Dab)-NH2], for which, in series [1], the pKi was 6.19. In addition, in series [2], the Emax was determined as 73% and the pEC50 was 7.36.
The like results for `CCCCC(NC(C)=O)C(=O)N[C@H]1CCC(=O)NCC[C@@H](C(N)=O)NC(=O)[C@H](CCCNC(=N)N)NC(=O)[C@@H](Cc2ccccc2)NC(=O)[C@H](Cc2c[nH]cn2)NC1=O` (stereo partly drawn) [Example 9.44, Ac-Nle-cyclo(Glu-His-D-Phe-Arg-Dab)-NH2] were, in that order, 8.15, 85% and 9.49.
Turning to `CCCCC(NC(C)=O)C(=O)N[C@H]1CCC(=O)NCC[C@@H](C(=O)N[C@@H](CCCCN)C(N)=O)NC(=O)[C@H](CCCNC(=N)N)NC(=O)[C@@H](Cc2ccccc2)NC(=O)[C@H](Cc2c[nH]cn2)NC1=O` (stereo partly drawn) [Example 9.52, Ac-Nle-cyclo(Glu-His-D-Phe-Arg-Dab)-Lys-NH2], the results for the pKi in [1] and in series [3] were 8.70 and 5.13, respectively. The Emax in series [2] turned out to be 91%. Also, the pEC50 in series [2] is 9.76.
Regarding `CCCC[C@H](NC(C)=O)C(=O)N[C@H]1CCC(=O)NC[C@@H](C(=O)N[C@@H](Cc2c[nH]c3ccccc23)C(C)=O)NC(=O)[C@H](CCCNC(=N)N)NC(=O)[C@@H](Cc2ccccc2)NC(=O)[C@H](Cc2c[nH]cn2)NC1=O` [Example 9.26, Ac-Nle-cyclo(Glu-His-D-Phe-Arg-Dap)-Trp-OH], the pKi in series [1] is 9.00. Also, in series [10], the “intact peptide in plasma or urine” value is given as “no intact peptide”; the “peptide levels in fecal samples” value was “significant and approximately equal levels”. In [2], the maximal response (Emax) turned out to be 81% and the pEC50 was 9.97. The negative logarithm of the Ki (pKi) in series [3] is 5.33.
Regarding `CCCC[C@H](NC(C)=O)C(=O)N[C@H]1CCC(=O)NCC[C@@H](C(N)=O)NC(=O)[C@H](CCCNC(=N)N)NC(=O)[C@@H](Cc2ccccc2)NC(=O)[C@H](Cc2c[nH]cn2)NC1=O` [Example 9.32, Ac-Nle-cyclo(Glu-His-D-Phe-Arg-Dab)-NH2], the Emax in [2] is 85%.
